From US20020193319A1, “Use of EGF genistein to prevent development of EGF-receptor expressing cancers” (Parker Hughes Institute, priority 1999, published 2002)
Where two headings read alike, the source gives them in different places.

Experiments:
MDA-MB-231 cells = test: FACS MC540/propidium iodide apoptosis assay; assay type: cell-based, human; conditions: 24 hours
Procedure: Fluorescence activated cell sorting (FACS) was used to sort MDA-MB-231 cells (breast cancer cells expressing EGF-Rc). The cells were treated with either PBS EFG-Genistein (0.1, 1, and 10 μM) or unconjugated Geninstein (1, 10, and 100 μM) and incubated for 24 hours. The cells were then stained with MC-540 and propidium iodide. Single MC540 fluorescence (S-MC540) indicates the cell is at an early stage of apoptosis. Dual MC540/propidium iodide fluorescence (D-MC540/PI) indicates the cell is at an advanced stage of apoptosis. The total apoptotic fraction (TAF) is calculated as the percentage of MC540 fluorescent cells plus the percentage of MC540/propidium iodide double fluorescent cells.

[1] = system: human breast cancer (MDA-MB-231) xenografts; assay type: in vivo; conditions: 100 μg/kg/day intraperitoneally for 10 days, followed 20 days, vs PBS or unconjugated Genistein
Procedure: The tumor diameter was determined daily for 20 days from the start of therapy. Control mice were treated with 0.2 ml of PBS for 10 consecutive days or unconjugated Genistein at a concentration of 500 μg/kg/day for 10 days. P values were determined using Student's t test.

[2] = system: Neu mediated mammary tumors; test: Prevention of spontaneous breast cancer in Neu/erbB2 transgenic mice; assay type: in vivo
Procedure: Neu/erbB2 transgenic mice were chosen because they overexpress the Neu protooncogene in their mammary glands.
As a control, 29 Neu/erbB2 mice were treated with PBS.

## EGF: Human epidermal growth factor, six kilodalton 53 amino acid single-chain polypeptide
MDA-MB-231 cells; 1 μM
  % D-MC540/PI (Dual MC540/propidium iodide, advanced stage of apoptosis): 0.8%
  % S-MC540 (Single MC540, early stage of apoptosis): 5.5%
  % TAF (total apoptotic fraction: Single MC540 plus Dual MC540/propidium iodide): 6.3%
MDA-MB-231 cells; 10 μM
  % D-MC540/PI (Dual MC540/propidium iodide, advanced stage of apoptosis): 1.2%
  % S-MC540 (Single MC540, early stage of apoptosis): 9.5%
  % TAF (total apoptotic fraction: Single MC540 plus Dual MC540/propidium iodide): 10.7%
MDA-MB-231 cells; 100 μM
  % D-MC540/PI (Dual MC540/propidium iodide, advanced stage of apoptosis): 2.0%
  % S-MC540 (Single MC540, early stage of apoptosis): 13.5%
  % TAF (total apoptotic fraction: Single MC540 plus Dual MC540/propidium iodide): 15.5%

## EGF-Genistein: Genistein conjugated to epidermal growth factor (EGF), prepared as in Example 1 of U.S. Pat. No. 5,911,995
MDA-MB-231 cells; 0.1 μM
  % S-MC540 (Single MC540, early stage of apoptosis): 78.8%
  % TAF (total apoptotic fraction: Single MC540 plus Dual MC540/propidium iodide): 98.7%
MDA-MB-231 cells; 1 μM
  % D-MC540/PI (Dual MC540/propidium iodide, advanced stage of apoptosis): 36.6%
  % S-MC540 (Single MC540, early stage of apoptosis): 61.0%
  % TAF (total apoptotic fraction: Single MC540 plus Dual MC540/propidium iodide): 97.6%
MDA-MB-231 cells; 10 μM
  % D-MC540/PI (Dual MC540/propidium iodide, advanced stage of apoptosis): 56.7%
  % S-MC540 (Single MC540, early stage of apoptosis): 42.2%
  % TAF (total apoptotic fraction: Single MC540 plus Dual MC540/propidium iodide): 98.9%
[1]; 0.5 cm xenograft, FIG. 3A
  tumor progression (tumor diameter): reversed
[1]; 1.0 cm xenograft, FIG. 3B
  tumor progression (tumor diameter): slowed
[2]; 100 μg 1× per week for 10 weeks
  side effects: not associated with any side effects
[2]; 100 μg subcutaneously 1× per week for 10 weeks (5 mg/kg), from 4 months old, n=10
  mice that developed breast cancer: 40%
